Reference: patent US20230093099A1, “COMPOUNDS AND METHODS OF TREATING CANCERS” (CULLGEN (SHANGHAI), INC., priority 2019, published 2023)

What follows are molecules tested on RS4;11 cells (assay: Cell viability assay (CellTiter-Glo) in RS4;11 cells). Details: Homo sapiens, 72 h; RS4;11 cells; cell viability, 3 days, CellTiter-Glo; read-out: IC50.
Assay type: cell-based
Method in brief: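 RS4;11 cells seeded at 5000 per well, exposed for 3 days to 8- or 12-point 3-fold serial dilutions. Viability read by CellTiter-Glo luminescence; IC50 fitted by nonlinear least-squares regression.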

**Q.** `O=C(CN1CCC(n2cc(-c3cnc4cccc(-c5cc(F)c(CN6CCOCC6)c(F)c5)c4n3)cn2)CC1)NCCOCCOCCOCCNc1ccc2c(c1)C(=O)N(C1CCC(=O)NC1=O)C2=O` (stereo not drawn) [JA-171, 2-(4-(4-(8-(3,5-Difluoro-4-(morpholinomethyl)phenyl)quinoxalin-2-yl)-1H-pyrazol-1-yl)piperidin-1-yl)-N-(2-(2-(2-(2-((2-(2,6-dioxopiperidin-3-yl)-1,3-dioxoisoindolin-5-yl)amino)ethoxy)ethoxy)ethoxy)ethyl)acetamide] was tested. Which IC50 did it give?
**A.** > 10 µM

**Q.** For `O=C(CN1CCC(n2cc(-c3cnc4cccc(-c5cc(F)c(CN6CCOCC6)c(F)c5)c4n3)cn2)CC1)NCCNc1cccc2c1C(=O)N(C1CCC(=O)NC1=O)C2=O` (stereo not drawn) [JA-144, 2-[4-[4-[8-[3,5-Difluoro-4-(morpholinomethyl)phenyl]quinoxalin-2-yl]pyrazol-1-yl]-1-piperidyl]-N-[2-[[2-(2,6-dioxo-3-piperidyl)-1,3-dioxo-isoindolin-4-yl]amino]ethyl]acetamide], which IC50 is on record?
**A.** 2.39 µM

**Q.** With `Cc1cnc(Nc2ccc(N3CCN(CC(=O)NCCCNc4cccc5c4C(=O)N(C4CCC(=O)NC4=O)C5=O)CC3)cc2)nc1Nc1cccc(S(=O)(=O)NC(C)(C)C)c1` (stereo not drawn) [JA-091, 2-(4-(4-((4-((3-(N-(tert-Butyl)sulfamoyl)phenyl)amino)-5-methylpyrimidin-2-yl)amino)phenyl)piperazin-1-yl)-N-(3-((2-(2,6-dioxopiperidin-3-yl)-1,3-dioxoisoindolin-4-yl)amino)propyl)acetamide] as the molecule, how does the IC50 read?
**A.** 2.98 µM

**Q.** For `O=C1CCC(N2Cc3cc(CCCCCCC(=O)N4CCC(n5cc(-c6cnc7cccc(-c8cc(F)c(CN9CCOCC9)c(F)c8)c7n6)cn5)CC4)ccc3C2=O)C(=O)N1` (stereo not drawn) [JA-270, 3-(5-(7-(4-(4-(8-(3,5-Difluoro-4-(morpholinomethyl)phenyl)quinoxalin-2-yl)-1H-pyrazol-1-yl)piperidin-1-yl)-7-oxoheptyl)-1-oxoisoindolin-2-yl)piperidine-2,6-dione], which IC50 is on record?
**A.** 0.562 µM

**Q.** Which IC50 does the source give for `Cc1cnc(Nc2ccc(N3CCN(CC(=O)NCCOCCOCCNc4ccc5c(c4)C(=O)N(C4CCC(=O)NC4=O)C5=O)CC3)cc2)nc1Nc1cccc(S(=O)(=O)NC(C)(C)C)c1` (stereo not drawn) [JA-238, 2-(4-(4-((4-((3-(N-(tert-butyl)sulfamoyl)phenyl)amino)-5-methylpyrimidin-2-yl)amino)phenyl)piperazin-1-yl)-N-(2-(2-(2-((2-(2,6-dioxopiperidin-3-yl)-1,3-dioxoisoindolin-5-yl)amino)ethoxy)ethoxy)ethyl)acetamide] here?
**A.** 0.723 µM

**Q.** `O=C(CN1CCC(n2cc(-c3cnc4cccc(-c5cc(F)c(CN6CCOCC6)c(F)c5)c4n3)cn2)CC1)NCCOCCNc1ccc2c(c1)C(=O)N(C1CCC(=O)NC1=O)C2=O` (stereo not drawn) [JA-169, 2-(4-(4-(8-(3,5-Difluoro-4-(morpholinomethyl)phenyl)quinoxalin-2-yl)-1H-pyrazol-1-yl)piperidin-1-yl)-N-(2-(2-((2-(2,6-dioxopiperidin-3-yl)-1,3-dioxoisoindolin-5-yl)amino)ethoxy)ethyl)acetamide] was tested. Which IC50 did it give?
**A.** 2.03 µM

**Q.** `Cc1ncsc1-c1ccc(CNC(=O)[C@@H]2C[C@@H](O)CN2C(=O)[C@@H](NC(=O)CCCNC(=O)CN2CCC(n3cc(-c4cnc5cccc(-c6cc(F)c(CN7CCOCC7)c(F)c6)c5n4)cn3)CC2)C(C)(C)C)cc1` [JA-152, (2S,4R)-1-((S)-2-(4-(2-(4-(4-(8-(3,5-Difluoro-4-(morpholinomethyl)phenyl)quinoxalin-2-yl)-1H-pyrazol-1-yl)piperidin-1-yl)acetamido)butanamido)-3,3-dimethylbutanoyl)-4-hydroxy-N-(4-(4-methylthiazol-5-yl)benzyl)pyrrolidine-2-carboxamide] was tested. Which IC50 did it give?
**A.** > 10 µM

**Q.** Which IC50 does the source give for `Cc1cnc(Nc2ccc(N3CCN(C(=O)CCCCCNc4cccc5c4C(=O)N(C4CCC(=O)NC4=O)C5=O)CC3)cc2)nc1Nc1cccc(S(=O)(=O)NC(C)(C)C)c1` (stereo not drawn) [JA-007, N-(tert-Butyl)-3-((2-((4-(4-(6-((2-(2,6-dioxopiperidin-3-yl)-1,3-dioxoisoindolin-4-yl)amino)hexanoyl)piperazin-1-yl)phenyl)amino)-5-methylpyrimidin-4-yl)amino)benzenesulfonamide] here?
**A.** > 10 µM

**Q.** Which IC50 does the source give for `Cc1cnc(Nc2ccc(N3CCN(C(=O)CCOCCOCCOCCOCCOCCNc4ccc5c(c4)C(=O)N(C4CCC(=O)NC4=O)C5=O)CC3)cc2)nc1Nc1cccc(S(=O)(=O)NC(C)(C)C)c1` (stereo not drawn) [JA-236, N-(tert-butyl)-3-((2-((4-(4-(1-((2-(2,6-dioxopiperidin-3-yl)-1,3-dioxoisoindolin-5-yl)amino)-3,6,9,12,15-pentaoxaoctadecan-18-oyl)piperazin-1-yl)phenyl)amino)-5-methylpyrimidin-4-yl)amino)benzenesulfonamide] here?
**A.** 2.64 µM

**Q.** How did the IC50 turn out when `Cc1ncsc1-c1ccc(CNC(=O)[C@@H]2C[C@@H](O)CN2C(=O)[C@@H](NC(=O)CCNC(=O)CN2CCC(n3cc(-c4cnc5cccc(-c6cc(F)c(CN7CCOCC7)c(F)c6)c5n4)cn3)CC2)C(C)(C)C)cc1` [JA-155, (2S,4R)-1-((S)-2-(3-(2-(4-(4-(8-(3,5-Difluoro-4-(morpholinomethyl)phenyl)quinoxalin-2-yl)-1H-pyrazol-1-yl)piperidin-1-yl)acetamido)propanamido)-3,3-dimethylbutanoyl)-4-hydroxy-N-(4-(4-methylthiazol-5-yl)benzyl)pyrrolidine-2-carboxamide] was run?
**A.** > 10 µM

**Q.** Which IC50 does the source give for `Cc1cnc(Nc2ccc(N3CCN(C(=O)CCCCCCCC(=O)N[C@H](C(=O)N4C[C@H](O)C[C@H]4C(=O)NCc4ccc(-c5scnc5C)cc4)C(C)(C)C)CC3)cc2)nc1Nc1cccc(S(=O)(=O)NC(C)(C)C)c1` [JA-027, (2S,4R)-1-((S)-2-(9-(4-(4-((4-((3-(N-(tert-Butyl)sulfamoyl)phenyl)amino)-5-methylpyrimidin-2-yl)amino)phenyl)piperazin-1-yl)-9-oxononanamido)-3,3-dimethylbutanoyl)-4-hydroxy-N-(4-(4-methylthiazol-5-yl)benzyl)pyrrolidine-2-carboxamide] here?
**A.** > 10 µM

**Q.** `Cc1cnc(Nc2ccc(N3CCN(C(=O)CCOCCNc4cccc5c4C(=O)N(C4CCC(=O)NC4=O)C5=O)CC3)cc2)nc1Nc1cccc(S(=O)(=O)NC(C)(C)C)c1` (stereo not drawn) [JA-017, N-(tert-Butyl)-3-((2-((4-(4-(3-(2-((2-(2,6-dioxopiperidin-3-yl)-1,3-dioxoisoindolin-4-yl)amino)ethoxy)propanoyl)piperazin-1-yl)phenyl)amino)-5-methylpyrimidin-4-yl)amino)benzenesulfonamide] was tested. Which IC50 did it give?
**A.** > 10 µM

**Q.** For `Cc1ncsc1-c1ccc(CNC(=O)[C@@H]2C[C@@H](O)CN2C(=O)[C@@H](NC(=O)CCNC(=O)CN2CCN(c3ccc(Nc4nc5cccc(-c6ccc(S(C)(=O)=O)cc6)n5n4)cc3)CC2)C(C)(C)C)cc1` [JA-119, (2S,4R)-1-((S)-3,3-Dimethyl-2-(3-(2-(4-(4-((5-(4-(methylsulfonyl)phenyl)-[1,2,4]triazolo[1,5-a]pyridin-2-yl)amino)phenyl)piperazin-1-yl)acetamido)propanamido)butanoyl)-4-hydroxy-N-(4-(4-methylthiazol-5-yl)benzyl)pyrrolidine-2-carboxamide], which IC50 is on record?
**A.** > 10 µM

**Q.** Which IC50 does the source give for `CS(=O)(=O)c1ccc(-c2cccc3nc(Nc4ccc(N5CCN(CC(=O)NCCCCCCNc6cccc7c6C(=O)N(C6CCC(=O)NC6=O)C7=O)CC5)cc4)nn23)cc1` (stereo not drawn) [JA-112, N-(6-((2-(2,6-Dioxopiperidin-3-yl)-1,3-dioxoisoindolin-4-yl)amino)hexyl)-2-(4-(4-((5-(4-(methylsulfonyl)phenyl)-[1,2,4]triazolo[1,5-a]pyridin-2-yl)amino)phenyl)piperazin-1-yl)acetamide] here?
**A.** > 10 µM

**Q.** Which IC50 does the source give for `O=C(CN1CCC(n2cc(-c3cnc4cccc(-c5cc(F)c(CN6CCOCC6)c(F)c5)c4n3)cn2)CC1)NCCOCCOCCOCCOCCOCCNc1ccc2c(c1)C(=O)N(C1CCC(=O)NC1=O)C2=O` (stereo not drawn) [JA-173, 2-(4-(4-(8-(3,5-Difluoro-4-(morpholinomethyl)phenyl)quinoxalin-2-yl)-1H-pyrazol-1-yl)piperidin-1-yl)-N-(17-((2-(2,6-dioxopiperidin-3-yl)-1,3-dioxoisoindolin-5-yl)amino)-3,6,9,12,15-pentaoxaheptadecyl)acetamide] here?
**A.** > 10 µM

**Q.** With `Cc1cnc(Nc2ccc(N3CCN(CC(=O)NCCCCCC(=O)N[C@H](C(=O)N4C[C@H](O)C[C@H]4C(=O)NCc4ccc(-c5scnc5C)cc4)C(C)(C)C)CC3)cc2)nc1Nc1cccc(S(=O)(=O)NC(C)(C)C)c1` [JA-101, (2S,4R)-1-((S)-2-(6-(2-(4-(4-((4-((3-(N-(tert-Butyl)sulfamoyl)phenyl)amino)-5-methylpyrimidin-2-yl)amino)phenyl)piperazin-1-yl)acetamido)hexanamido)-3,3-dimethylbutanoyl)-4-hydroxy-N-(4-(4-methylthiazol-5-yl)benzyl)pyrrolidine-2-carboxamide] as the molecule, how does the IC50 read?
**A.** > 10 µM

**Q.** How did the IC50 turn out when `O=C1CCC(N2C(=O)c3cccc(NCCCCCC(=O)N4CCC(n5cc(-c6cnc7cccc(-c8cc(F)c(CN9CCOCC9)c(F)c8)c7n6)cn5)CC4)c3C2=O)C(=O)N1` (stereo not drawn) [JA-001, 4-[[6-[4-[4-[8-[3,5-Difluoro-4-(morpholinomethyl)phenyl]quinoxalin-2-yl]pyrazol-1-yl]-1-piperidyl]-6-oxo-hexyl]amino]-2-(2,6-dioxo-3-piperidyl)isoindoline-1,3-dione] was run?
**A.** 3.17 µM

**Q.** `Cc1cnc(Nc2ccc(N3CCN(C(=O)CCOCCOCCOCCOCCC(=O)N[C@H](C(=O)N4C[C@H](O)C[C@H]4C(=O)NCc4ccc(-c5scnc5C)cc4)C(C)(C)C)CC3)cc2)nc1Nc1cccc(S(=O)(=O)NC(C)(C)C)c1` [JA-035, (2S,4R)-1-((S)-2-(tert-Butyl)-19-(4-(4-((4-((3-(N-(tert-butyl)sulfamoyl)phenyl)amino)-5-methylpyrimidin-2-yl)amino)phenyl)piperazin-1-yl)-4,19-dioxo-7,10,13,16-tetraoxa-3-azanonadecanoyl)-4-hydroxy-N-(4-(4-methylthiazol-5-yl)benzyl)pyrrolidine-2-carboxamide] was tested. Which IC50 did it give?
**A.** > 10 µM
